According to patent US20250248405A1, “COMBINATIONS FOR CONTROLLING POST-HARVEST PATHOGENS IN AGRICULTURAL PRODUCE AND METHOD OF USE THEREOF” (Decco Worldwide Post Harvest Holding BV, priority 2024, published 2025):

How the values were obtained:
Penicillium expansum = assay: Artificial wound inoculation of Fuji apples, blue mold decay; assay type: in vivo; details: solo at full rate (TBZ 1.45 g/L, PYR 1.35 g/L, FDL 0.85 g/L, C. oleophila 0.33 g/L), control 94
Protocol: (§1) Several lab trials were conducted to test efficacy of Candida oleophila strain O against major post-harvest pathogens of pome (Blue mold: Penicillium expansum, Gray mold: Botrytis cinerea, Bull's eye rot: Neofabraea perennans and Mucor rot and to test synergistic interaction of Candida oleophila strain O with 3 post-harvest fungicides of pome fruits namely Fludioxonil (FDL), Pyrimethanil (PYR) and Thiabendazole (TBZ).
(§2) Candida oleophila strain O was applied solo and in combination with three different post-harvest fungicides at full rate (FR) and half label rate (HR) (for conventional fungicides) to study its compatibility and synergist interaction. Testing was done on artificially/lab inoculated and naturally infected fruits.
(§3) For artificial inoculations through wound, washed fruits were wounded twice at the stem end region and were kept for 30 mins to dry the juice from the wound site. Fruits were fully submerged in fungicide solutions for 1 min and then transferred to a perforated basket to drip dry. Fruits were the transferred to the fruit trays and were left to dry overnight. 5×10^4 fungal spores/mL spore suspension of post-harvest pathogens as indicated above was prepared for inoculation. 50 μL spore suspension was transferred in each wound using a pipette and was left to dry for 1 hr at room temperature. Fruits were stored in cold storage. Fruit decay was monitored periodically, when decay on control fruit was above 80%, the disease incidence and severity was evaluated on all the treatments.

Neofabraea perennans = assay: Artificial wound inoculation of Fuji apples, bull's eye rot decay; assay type: in vivo; details: solo at full rate (TBZ 1.45 g/L, PYR 1.35 g/L, FDL 0.85 g/L, C. oleophila 0.33 g/L), control 98
Protocol: as §1, §2, §3

Mucor sp. = assay: Artificial wound inoculation of Fuji apples, Mucor rot decay; assay type: in vivo; details: solo at full rate (TBZ 1.45 g/L, PYR 1.35 g/L, FDL 0.85 g/L, C. oleophila 0.33 g/L), control 100
Protocol: as §1, §2, §3

[1] = test system: Candida oleophila strain O; assay: Compatibility test on fungicide-amended PDA solid medium (colony count of biocontrol agent); assay type: cell-based; details: Candida oleophila strain O 10^6 cfu/ml
Botrytis cinerea = assay: Artificial wound inoculation of Fuji apples, gray mold decay; assay type: in vivo; details: solo at full rate (PYR 1.35 g/L, FDL 0.85 g/L, C. oleophila 0.33 g/L), control 47
Protocol: as §1, §2
as §3, with “50 μL spore suspension was transferred in each wound using a pipette and was left to dry for 1 hr at room temperature. Fruits were stored in cold storage.” left out

[2] = test system: Candida oleophila strain O; assay: Compatibility test on fungicide-amended PDA solid medium (colony count of biocontrol agent); assay type: cell-based; details: for Compatibility: Candida oleophila strain O 10^2-10^3 cfu/ml
Protocol: “Compatibility” as used herein the specification, means how well a fungicide mixes with other substances. It's important to know how two formulations interact with other to avoid problems like reduced effectiveness or increased toxicity and herein measured by the unaffected colony count of biocontrol agent upon mixing with chemical fungicides.
The disclosure will be illustrated with reference to the following examples: Compatibility of biocontrol agent: Candida oleophila strain O was tested with various preharvest and post-harvest fungicides to test if they have any negative effect on Candida oleophila strain activity. The dry mass of a single Candida oleophila cell, including strain O, is approximately 47.65 picograms (pg) (48 pg=48×10^−9 mg), which is a typical mass for a single yeast cell.
1 gram of biomass (10^10 cfu/gm) was activated in 100 ml of water for 45 minutes. 1 ml of the biomass suspension was mixed with 99 ml of lactate dilution (2 g calcium lactate diluted in 99 ml water). Biomass solution was further diluted to 100 and 1000 folds and 100 μl of the diluted biomass solution was plated on synthetic fungicide amended PDA (Potato dextrose agar) plates, which yields around 10^3 and 10^2 cfu/plate, respectively, in fully compatible mixtures. Plates were incubated at 23° C. and the growth of CFUs (colony forming units) and total number of Candida oleophila colonies were counted after 5-7 days.
Pesticide amended PDA plates were prepared by inoculating pesticide on a Potato dextrose agar plate at no treatment (control), standard (full dose) and reduced (half dose) depending on the treatments. For e.g., if a pesticide has standard dose concentration of 5 ppm, then plates were prepared at 0 ppm, 2.5 ppm and 5 ppm. with that pesticide.

SMILES	Decay severity (%) Penicillium sp. (Penicillium expansum) [%]	Decay severity (%) Neofabrea sp. (Neofabraea perennans) [%]	Decay severity (%) Mucor sp. (Mucor sp.) [%]	Compatibility of Candida oleophila strain O with the fungicide (text summary of Table 1) [2]	further results
Cc1cc(C)nc(Nc2ccccc2)n1 [Pyrimethanil]	7	70	100	compatible	Compatibility ([1]; fungicide 600 g/L a.i., tested dosage 800 ppm): YES; Decay severity (%) Botrytis sp. (Botrytis cinerea): 7%
N#Cc1c[nH]cc1-c1cccc2c1OC(F)(F)O2 [Fludioxonil]	0	83	100	compatible	Decay severity (%) Botrytis sp. (Botrytis cinerea): 2%
O=C(Nc1ccccc1-c1ccc(Cl)cc1)c1cccnc1Cl [Boscalid]	–	–	–	compatible	–
O=S(=O)([O-])[O-].[Cu+2] [Copper sulphate]	–	–	–	compatible	–
Cn1cc(C(=O)Nc2ccccc2-c2cc(F)c(F)c(F)c2)c(C(F)F)n1 [Fluxapyroxad]	–	–	–	compatible	Compatibility ([2]; fungicide 300 g/L a.i., tested dosage 0.5-2 ppm): YES; Compatibility ([2]; fungicide 300 g/L a.i., tested dosage 0.9 ppm): YES
COC(=O)N(OC)c1ccccc1COc1ccn(-c2ccc(Cl)cc2)n1 [Pyraclostrobin]	–	–	–	compatible	Compatibility ([2]; fungicide 250 g/L a.i., tested dosage 2-8 ppm): YES
COC(=O)NC(=S)Nc1ccccc1NC(=S)NC(=O)OC [Thiophanate-methyl]	–	–	–	compatible	–
[Cl-].[Cu+2].[Cu+2].[OH-].[OH-].[OH-] [Copper oxychloride]	–	–	–	compatible	–
c1ccc2[nH]c(-c3cscn3)nc2c1 [Thiabendazole]	4	22	100	compatible	Compatibility ([1]; fungicide 500 g/L a.i., tested dosage 200 ppm): YES
